The record followed here is patent US7572786B2, “Substituted 1-piperidin-3-yl-4-piperidin-4-yl-piperazine derivatives and their use as neurokinin antagonists” (Janssen Pharmaceutica, N.V., priority 2002, dated 2009).

The first assay concerns the target T1, NK3 (Homo sapiens, UniProt P29371).
T1 sequence (P29371 1-465): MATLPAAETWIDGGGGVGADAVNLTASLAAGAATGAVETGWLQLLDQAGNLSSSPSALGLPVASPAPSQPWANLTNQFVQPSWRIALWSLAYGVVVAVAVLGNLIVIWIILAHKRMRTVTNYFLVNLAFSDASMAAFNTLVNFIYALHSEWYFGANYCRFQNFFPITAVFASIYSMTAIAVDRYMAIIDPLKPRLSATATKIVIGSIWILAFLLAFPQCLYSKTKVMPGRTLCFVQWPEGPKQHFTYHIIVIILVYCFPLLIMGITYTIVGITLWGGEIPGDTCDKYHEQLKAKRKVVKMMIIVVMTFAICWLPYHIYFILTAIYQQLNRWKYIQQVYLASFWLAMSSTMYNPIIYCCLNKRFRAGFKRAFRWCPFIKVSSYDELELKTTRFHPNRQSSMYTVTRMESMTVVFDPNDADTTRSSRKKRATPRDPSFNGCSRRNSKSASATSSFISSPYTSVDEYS
Description: Signal transduction (ST), intracellular Ca++ (FLIPR), NK3. The settings on record: read-out: pIC50 NK3 (converted). It is filed as cell-based. The method, then:
[The source words this procedure for another target and reports this target under the same test.] (§1) This test evaluates in vitro functional NK1 antagonistic activity. For the measurements of intracellular Ca^++ concentrations the cells were grown on 96-well (black wall/transparent bottom) plates from Costar for 2 days until they reached confluence. The cells were loaded with 2 μM Fluo3 in DMEM containing 0.1% BSA and 2.5 mM probenecid for 1 h at 37° C. […] The cells were preincubated with a concentration range of antagonists for 20 min at RT and Ca^++-signals after addition of the agonists were measured in a Fluorescence Image Plate Reader (FLIPR from Molecular Devices, Crawley, England). The peak of the Ca^++-transient was considered as the relevant signal and the mean values of corresponding wells were analysed as described below.
(§2) The sigmoidal dose response curves were analysed by computerised curve-fitting, using the GraphPad Program. […] For antagonist responses the IC50-value was calculated using non-linear regression.
As for `O=C(OCc1ccccc1C(=O)N1CCCC(N2CCN([C@H]3CCN(C(=O)c4cc(C(F)(F)F)cc(C(F)(F)F)c4)[C@H](Cc4ccccc4)C3)CC2)C1)c1ccccc1` (stereo partly drawn) [Compound 82], the IC50 was 7.94 µM.
Turning to `O=C(c1cc(C(F)(F)F)cc(C(F)(F)F)c1)N1CC[C@H](N2CCN(C3CCCN(S(=O)(=O)c4ccccc4C(F)(F)F)C3)CC2)C[C@H]1Cc1ccccc1` (stereo partly drawn) [Compound 50], the IC50 was 7.94 µM.
On to `O=C(c1cc(C(F)(F)F)cc(C(F)(F)F)c1)N1CCC(N2CCN(C3CCCN(S(=O)(=O)Cc4ccccc4)C3)CC2)CC1Cc1ccccc1` (stereo not drawn) [Compound 49], for which the IC50 was 0.316 µM.
Same read-out and setting: under `O=C(c1cc(C(F)(F)F)cc(C(F)(F)F)c1)N1CC[C@H](N2CCN(C3CCCN(S(=O)(=O)c4ccc(CO)s4)C3)CC2)C[C@H]1Cc1ccccc1` (stereo partly drawn) [Compound 92] stands 0.158 µM; under `COc1ccc(S(=O)(=O)N2CCCC(N3CCN([C@H]4CCN(C(=O)c5cc(C(F)(F)F)cc(C(F)(F)F)c5)[C@H](Cc5ccccc5)C4)CC3)C2)cc1` (stereo partly drawn) [Compound 72], 1.26 µM; under `O=C(c1cc(C(F)(F)F)cc(C(F)(F)F)c1)N1CCC(N2CCN(C3CCCN(S(=O)(=O)c4cc(CCO)cs4)C3)CC2)CC1Cc1ccccc1` (stereo not drawn) [Compound 96], 0.1 µM.
Same read-out and setting: under `O=C(c1cc(C(F)(F)F)cc(C(F)(F)F)c1)N1CC[C@H](N2CCN(C3CCCN(S(=O)(=O)c4ccc(-c5cnco5)s4)C3)CC2)C[C@H]1Cc1ccccc1` (stereo partly drawn) [Compound 37] stands 0.631 µM; under `O=C(Nc1ccccc1F)N1CCCC(N2CCN([C@H]3CCN(C(=O)c4cc(C(F)(F)F)cc(C(F)(F)F)c4)[C@H](Cc4ccccc4)C3)CC2)C1` (stereo partly drawn) [Compound 65], 6.31 µM.
On the same count and under the same terms, under `O=C(C1CC1)N1CCCC(N2CCN([C@H]3CCN(C(=O)c4cc(C(F)(F)F)cc(C(F)(F)F)c4)[C@H](Cc4ccccc4)C3)CC2)C1` (stereo partly drawn) [Compound 15] stands 0.158 µM; under `O=C(c1cc(COCc2ccccc2)cs1)N1CCCC(N2CCN([C@H]3CCN(C(=O)c4cc(C(F)(F)F)cc(C(F)(F)F)c4)[C@H](Cc4ccccc4)C3)CC2)C1` (stereo partly drawn) [Compound 85], 5.01 µM; under `O=C(c1cc(C(F)(F)F)cc(C(F)(F)F)c1)N1CC[C@H](N2CCN(C3CCCN(S(=O)(=O)c4ccccc4)C3)CC2)C[C@H]1Cc1ccccc1` (stereo partly drawn) [Compound 28], 0.158 µM.

The next assay has as its target T2, NK2 (Homo sapiens, UniProt P21452).
T2 sequence (P21452 1-398): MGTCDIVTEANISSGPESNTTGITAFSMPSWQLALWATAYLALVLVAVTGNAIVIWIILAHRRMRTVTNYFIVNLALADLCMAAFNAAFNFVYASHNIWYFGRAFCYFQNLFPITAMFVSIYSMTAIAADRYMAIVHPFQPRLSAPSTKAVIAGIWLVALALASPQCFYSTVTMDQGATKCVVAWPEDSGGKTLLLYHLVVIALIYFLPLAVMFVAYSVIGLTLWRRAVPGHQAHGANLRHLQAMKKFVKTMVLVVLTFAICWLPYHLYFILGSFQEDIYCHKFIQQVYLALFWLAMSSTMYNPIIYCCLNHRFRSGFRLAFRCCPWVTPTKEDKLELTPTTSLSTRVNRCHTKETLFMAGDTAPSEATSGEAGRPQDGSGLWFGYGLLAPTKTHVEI
Kind of assay: Signal transduction (ST), intracellular Ca++ (FLIPR), NK2. The assay is classed as cell-based.
Conditions: not given
The method, then: [The source words this procedure for another target and reports this target under the same test.] as §1, §2
As for `O=C(c1cc(C(F)(F)F)cc(C(F)(F)F)c1)N1CC[C@H](N2CCN(C3CCCN(S(=O)(=O)c4occc4COCc4ccccc4)C3)CC2)C[C@H]1Cc1ccccc1` (stereo partly drawn) [Compound 90], the “pIC50 NK2” value is 5.7.

The same assay, now with this note: read-out: pIC50 NK2 (converted).
In the case of `O=C(OCc1ccccc1C(=O)N1CCCC(N2CCN([C@H]3CCN(C(=O)c4cc(C(F)(F)F)cc(C(F)(F)F)c4)[C@H](Cc4ccccc4)C3)CC2)C1)c1ccccc1` (stereo partly drawn) [Compound 82], the IC50 is 3.16 µM.
Still for that read-out and setting: under `O=C(c1cc(C(F)(F)F)cc(C(F)(F)F)c1)N1CC[C@H](N2CCN(C3CCCN(S(=O)(=O)c4ccc(COCc5ccccc5)cc4)C3)CC2)C[C@H]1Cc1ccccc1` (stereo partly drawn) [Compound 58] stands 2 µM; under `O=C(c1cc(C(F)(F)F)cc(C(F)(F)F)c1)N1CC[C@H](N2CCN(C3CCCN(S(=O)(=O)c4ccccc4C(F)(F)F)C3)CC2)C[C@H]1Cc1ccccc1` (stereo partly drawn) [Compound 50], 6.31 µM; under `O=C(c1cc(C(F)(F)F)cc(C(F)(F)F)c1)N1CCC(N2CCN(C3CCCN(S(=O)(=O)Cc4ccccc4)C3)CC2)CC1Cc1ccccc1` (stereo not drawn) [Compound 49], 0.631 µM.
Same read-out and setting: under `O=C(c1cc(C(F)(F)F)cc(C(F)(F)F)c1)N1CC[C@H](N2CCN(C3CCCN(S(=O)(=O)c4ccc(CO)s4)C3)CC2)C[C@H]1Cc1ccccc1` (stereo partly drawn) [Compound 92] stands 0.501 µM; under `COc1ccc(S(=O)(=O)N2CCCC(N3CCN([C@H]4CCN(C(=O)c5cc(C(F)(F)F)cc(C(F)(F)F)c5)[C@H](Cc5ccccc5)C4)CC3)C2)cc1` (stereo partly drawn) [Compound 72], 2 µM.
Turning to `O=C(c1cc(C(F)(F)F)cc(C(F)(F)F)c1)N1CCC(N2CCN(C3CCCN(S(=O)(=O)c4cc(CCO)cs4)C3)CC2)CC1Cc1ccccc1` (stereo not drawn) [Compound 96], the IC50 is 0.398 µM.
The same measure, in the same setting: under `O=C(c1cc(C(F)(F)F)cc(C(F)(F)F)c1)N1CC[C@H](N2CCN(C3CCCN(S(=O)(=O)c4ccc(-c5cnco5)s4)C3)CC2)C[C@H]1Cc1ccccc1` (stereo partly drawn) [Compound 37] stands 2 µM; under `O=C(Nc1ccccc1F)N1CCCC(N2CCN([C@H]3CCN(C(=O)c4cc(C(F)(F)F)cc(C(F)(F)F)c4)[C@H](Cc4ccccc4)C3)CC2)C1` (stereo partly drawn) [Compound 65], 1.58 µM.
On the same count and under the same terms, under `O=C(C1CC1)N1CCCC(N2CCN([C@H]3CCN(C(=O)c4cc(C(F)(F)F)cc(C(F)(F)F)c4)[C@H](Cc4ccccc4)C3)CC2)C1` (stereo partly drawn) [Compound 15] stands 6.31 µM; under `O=C(c1cc(COCc2ccccc2)cs1)N1CCCC(N2CCN([C@H]3CCN(C(=O)c4cc(C(F)(F)F)cc(C(F)(F)F)c4)[C@H](Cc4ccccc4)C3)CC2)C1` (stereo partly drawn) [Compound 85], 3.98 µM; under `O=C(c1cc(C(F)(F)F)cc(C(F)(F)F)c1)N1CC[C@H](N2CCN(C3CCCN(S(=O)(=O)c4ccccc4)C3)CC2)C[C@H]1Cc1ccccc1` (stereo partly drawn) [Compound 28], 2 µM.
On the same count and under the same terms, under `CC(C)N/C(=C\[N+](=O)[O-])N1CCCC(N2CCN(C3CCN(C(=O)c4cc(C(F)(F)F)cc(C(F)(F)F)c4)C(Cc4ccccc4)C3)CC2)C1` (stereo not drawn) [Compound 103] stands 6.31 µM.

For a further assay, the target named is NK1 (Homo sapiens, UniProt P25103). Kind of assay: Signal transduction (ST), intracellular Ca++ (FLIPR), NK1 antagonism. The assay is classed as cell-based.
Sequence of NK1 (P25103 whole entry): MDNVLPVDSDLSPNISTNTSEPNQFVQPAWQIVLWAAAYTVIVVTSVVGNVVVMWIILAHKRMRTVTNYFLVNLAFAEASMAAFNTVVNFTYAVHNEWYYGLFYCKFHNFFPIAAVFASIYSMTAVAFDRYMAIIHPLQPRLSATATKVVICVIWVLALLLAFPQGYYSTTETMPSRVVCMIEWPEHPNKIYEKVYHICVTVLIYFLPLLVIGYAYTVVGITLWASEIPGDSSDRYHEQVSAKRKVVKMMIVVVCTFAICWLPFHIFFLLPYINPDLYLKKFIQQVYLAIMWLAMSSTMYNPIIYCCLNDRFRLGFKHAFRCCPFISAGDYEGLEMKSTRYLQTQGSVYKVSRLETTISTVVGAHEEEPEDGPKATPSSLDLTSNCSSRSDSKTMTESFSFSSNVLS
Conditions: not given
The method, then:
as §1, §2
Consider `O=C(c1cc(C(F)(F)F)cc(C(F)(F)F)c1)N1CC[C@H](N2CCN(C3CCCN(S(=O)(=O)c4occc4COCc4ccccc4)C3)CC2)C[C@H]1Cc1ccccc1` (stereo partly drawn) [Compound 90], for which the “pIC50 NK1” value is listed as 6.8.

Still in this assay, the particulars now being: read-out: pIC50 NK1 (converted).
In the case of `O=C(OCc1ccccc1C(=O)N1CCCC(N2CCN([C@H]3CCN(C(=O)c4cc(C(F)(F)F)cc(C(F)(F)F)c4)[C@H](Cc4ccccc4)C3)CC2)C1)c1ccccc1` (stereo partly drawn) [Compound 82], the IC50 is 0.0631 µM.
In the case of `O=C(c1cc(C(F)(F)F)cc(C(F)(F)F)c1)N1CC[C@H](N2CCN(C3CCCN(S(=O)(=O)c4ccc(COCc5ccccc5)cc4)C3)CC2)C[C@H]1Cc1ccccc1` (stereo partly drawn) [Compound 58], the IC50 is 0.251 µM.
Take `O=C(c1cc(C(F)(F)F)cc(C(F)(F)F)c1)N1CC[C@H](N2CCN(C3CCCN(S(=O)(=O)c4ccccc4C(F)(F)F)C3)CC2)C[C@H]1Cc1ccccc1` (stereo partly drawn) [Compound 50]: the IC50 is 0.1 µM.
Consider `O=C(c1cc(C(F)(F)F)cc(C(F)(F)F)c1)N1CCC(N2CCN(C3CCCN(S(=O)(=O)Cc4ccccc4)C3)CC2)CC1Cc1ccccc1` (stereo not drawn) [Compound 49], for which the IC50 was 0.0158 µM.
As for `O=C(c1cc(C(F)(F)F)cc(C(F)(F)F)c1)N1CC[C@H](N2CCN(C3CCCN(S(=O)(=O)c4ccc(CO)s4)C3)CC2)C[C@H]1Cc1ccccc1` (stereo partly drawn) [Compound 92], the IC50 was 0.0126 µM.
Same read-out and setting: under `COc1ccc(S(=O)(=O)N2CCCC(N3CCN([C@H]4CCN(C(=O)c5cc(C(F)(F)F)cc(C(F)(F)F)c5)[C@H](Cc5ccccc5)C4)CC3)C2)cc1` (stereo partly drawn) [Compound 72] stands 0.02 µM; under `O=C(c1cc(C(F)(F)F)cc(C(F)(F)F)c1)N1CCC(N2CCN(C3CCCN(S(=O)(=O)c4cc(CCO)cs4)C3)CC2)CC1Cc1ccccc1` (stereo not drawn) [Compound 96], 0.0158 µM; under `O=C(c1cc(C(F)(F)F)cc(C(F)(F)F)c1)N1CC[C@H](N2CCN(C3CCCN(S(=O)(=O)c4ccc(-c5cnco5)s4)C3)CC2)C[C@H]1Cc1ccccc1` (stereo partly drawn) [Compound 37], 0.0126 µM.
Same read-out and setting: under `O=C(Nc1ccccc1F)N1CCCC(N2CCN([C@H]3CCN(C(=O)c4cc(C(F)(F)F)cc(C(F)(F)F)c4)[C@H](Cc4ccccc4)C3)CC2)C1` (stereo partly drawn) [Compound 65] stands 0.01 µM; under `O=C(C1CC1)N1CCCC(N2CCN([C@H]3CCN(C(=O)c4cc(C(F)(F)F)cc(C(F)(F)F)c4)[C@H](Cc4ccccc4)C3)CC2)C1` (stereo partly drawn) [Compound 15], 0.0126 µM; under `O=C(c1cc(COCc2ccccc2)cs1)N1CCCC(N2CCN([C@H]3CCN(C(=O)c4cc(C(F)(F)F)cc(C(F)(F)F)c4)[C@H](Cc4ccccc4)C3)CC2)C1` (stereo partly drawn) [Compound 85], 0.0794 µM.
The same measure, in the same setting: under `O=C(c1cc(C(F)(F)F)cc(C(F)(F)F)c1)N1CC[C@H](N2CCN(C3CCCN(S(=O)(=O)c4ccccc4)C3)CC2)C[C@H]1Cc1ccccc1` (stereo partly drawn) [Compound 28] stands 0.01 µM; under `CC(C)N/C(=C\[N+](=O)[O-])N1CCCC(N2CCN(C3CCN(C(=O)c4cc(C(F)(F)F)cc(C(F)(F)F)c4)C(Cc4ccccc4)C3)CC2)C1` (stereo not drawn) [Compound 103], 0.01 µM.
